Measurements as given in patent US10029989B2, “Imidazole derivatives” (Hoffmann-La Roche Inc., priority 2015, dated 2018).

How the values were obtained:
human EAAT3 = molecular target: T1, human EAAT3 (Homo sapiens, UniProt P43005); assay: FLIPR Membrane Potential (FMP) assay, antagonist potency at human EAAT3; format: cell-based; conditions: HEK-293 cells stably expressing human EAAT3; L-glutamate as agonist at EC80; antagonist applied 15 min before agonist; Kb by Cheng-Prusoff from IC50
T1 construct: expressed in transfected cells
T1 sequence (P43005 1-524): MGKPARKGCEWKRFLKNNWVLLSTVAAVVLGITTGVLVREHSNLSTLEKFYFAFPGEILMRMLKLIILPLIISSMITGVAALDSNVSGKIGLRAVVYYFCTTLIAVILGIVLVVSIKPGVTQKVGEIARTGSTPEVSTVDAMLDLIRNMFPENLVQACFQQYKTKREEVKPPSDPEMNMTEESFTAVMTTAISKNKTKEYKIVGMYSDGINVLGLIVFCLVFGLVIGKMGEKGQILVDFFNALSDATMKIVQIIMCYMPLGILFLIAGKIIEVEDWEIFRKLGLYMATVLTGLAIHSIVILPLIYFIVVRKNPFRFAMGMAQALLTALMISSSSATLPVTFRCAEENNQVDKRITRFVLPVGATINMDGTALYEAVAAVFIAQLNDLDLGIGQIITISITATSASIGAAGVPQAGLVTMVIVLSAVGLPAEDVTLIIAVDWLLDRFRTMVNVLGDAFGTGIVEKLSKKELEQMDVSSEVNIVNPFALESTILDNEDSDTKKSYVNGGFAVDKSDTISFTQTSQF
Experimental: The FLIPR Membrane Potential (FMP) Assay
HEK-293 cells stably expressing human EAAT3 were seeded at 55 000 cells/well in growth medium (DMEM glutamate free (Invitrogen 11960-044), 1% Pen Strep (10 ml/1 GIBCO BRL N°15140-023), 10% FCS non dialysed heat inactivated, 5 mg/l puromycin) in poly-D-lysine treated 96-well black microtiter plates with clear-bottom. After 24 h, the growth medium was removed and 100 μl/well of Krebs buffer (140 mM NaCl, 4.7 mM KCl, 2.5 mM CaCl2, 1.2 mM MgCl2, 11 mM HEPES, 10 mM D-glucose, pH=7.4) added. The cells were then loaded by adding 100 μl/well FMP assay dye (FLIPR Membrane Potential assay reagent, Molecular Devices). The 96-well plates were then incubated at 37° C. for 1 h. The depolarization of the cells will cause more dye to enter in the cells, where it will bind to intracellular proteins and lipids and cause an increase in the fluorescence signal. Antagonist potency at human EAAT3 was determined by using L-glutamate as agonist at a concentration which gives 80% of the maximum response. The antagonists were applied 15 min before the application of the agonist L-glutamate. The assays were performed at room temperature and measurements done by using a Fluorometric Imaging Plate Reader (FLIPR, Molecular Devices) and filter #2. Responses were measured as peak increase in fluorescence minus basal (i.e. fluorescence without addition of L-glutamate). Kb was determined using the Cheng-Prusoff equation Kb=IC50/[1+(A/EC50)], where IC50 is the concentration of the antagonist producing 50% inhibition, A is the concentration of the agonist against which the IC50 is being determined (at EC80) and EC50 is the concentration of the agonist producing 50% […].

| melting point | Kb (human EAAT3) | SMILES |
| --- | --- | --- |
| 95 °C | 210 nM | CC(C)c1nccn1-c1cc(C(=O)NC(C)(C)C)cc(-c2ccc(C3CC3)cc2)c1 [Example 25, N-tert-Butyl-3-(4-cyclopropylphenyl)-5-(2-propan-2-ylimidazol-1-yl)-benzamide] |
| 104 °C | 130 nM | Cc1ccc(-c2cc(C(=O)NC(C)(C)C)cc(-n3ccnc3C(C)C)c2)cc1 [Example 26, N-tert-Butyl-3-(4-methylphenyl)-5-(2-propan-2-ylimidazol-1-yl)-benzamide] |
| 98.5 °C | 280 nM | Cc1cc(-c2cc(C(=O)NC(C)(C)C)cc(-n3ccnc3C(C)C)c2)ccc1F [Example 27, N-tert-Butyl-3-(4-fluoro-3-methylphenyl)-5-(2-propan-2-ylimidazol-1-yl)-benzamide] |
| 101 °C | 160 nM | CC(C)(C)NC(=O)c1cc(-c2ccc(Cl)cc2)cc(-n2ccnc2C(C)(C)C)c1 [Example 28, N-tert-Butyl-3-(2-tert-butylimidazol-1-yl)-5-(4-chlorophenyl)-benzamide] |
| 218 °C | 180 nM | CC(C)(C)NC(=O)c1cc(-c2ccc(F)cc2)cc(-n2ccnc2C(C)(C)C)c1 [Example 32, N-tert-Butyl-3-(2-tert-butylimidazol-1-yl)-5-(4-fluorophenyl)-benzamide] |
| 183 °C | 100 nM | CC(C)(C)NC(=O)c1cc(-c2ccc(F)cc2)cc(-n2ccnc2C(C)(C)O)c1 [Example 34, N-tert-Butyl-3-(4-fluorophenyl)-5-[2-(2-hydroxypropan-2-yl)-imidazol-1-yl]-benzamide] |
| 87 °C | 330 nM | CCC(C)(C)NC(=O)c1cc(-c2ccc(Cl)cc2)cc(-n2ccnc2C(C)C)c1 [Example 36, 3-(4-Chlorophenyl)-N-(2-methylbutan-2-yl)-5-(2-propan-2-ylimidazol-1-yl)-benzamide] |
| 85 °C | 170 nM | CCC(C)(C)NC(=O)c1cc(-c2ccc(Cl)cc2)cc(-n2ccnc2C2CC2)c1 [Example 37, 3-(4-Chlorophenyl)-5-(2-cyclopropylimidazol-1-yl)-N-(2-methylbutan-2-yl)-benzamide] |
| 78 °C | 70 nM | CC(C)(C)NC(=O)c1cc(-c2ccc(Cl)cc2)cc(-n2ccnc2C(C)(C)O)c1 [Example 40, N-tert-Butyl-3-(4-chlorophenyl)-5-[2-(2-hydroxypropan-2-yl)-imidazol-1-yl]-benzamide] |
| 97 °C | 540 nM | CC(C)c1nccn1-c1cc(C(=O)NC(C)(C)CO)cc(-c2ccc(Cl)cc2)c1 [Example 41, 3-(4-Chlorophenyl)-N-(1-hydroxy-2-methylpropan-2-yl)-5-(2-propan-2-yl-imidazol-1-yl)-benzamide] |

Further lines, the compound ahead of its results:

| SMILES | melting point | Kb (human EAAT3) |
| --- | --- | --- |
| CC(C)(C)NC(=O)c1cc(-c2ccc(Cl)cc2)cc(-n2ccnc2CO)c1 [Example 29, N-tert-Butyl-3-(4-chlorophenyl)-5-[2-(hydroxymethyl)-imidazol-1-yl]-benzamide] | 114 °C | 150 nM |
| CCC(C)(C)NC(=O)c1cc(-c2ccc(Cl)cc2)cc(-n2ccnc2CO)c1 [Example 30, 3-(4-Chlorophenyl)-5-[2-(hydroxymethyl)-imidazol-1-yl]-N-(2-methylbutan-2-yl)-benzamide] | 76 °C | 160 nM |
| CCC(C)(C)NC(=O)c1cc(-c2ccc(Cl)cc2)cc(-n2ccnc2C(C)(C)C)c1 [Example 31, 3-(2-tert-Butylimidazol-1-yl)-5-(4-chlorophenyl)-N-(2-methylbutan-2-yl)-benzamide] | 189.5 °C | 410 nM |
| CC(C)(C)NC(=O)c1cc(-c2ccc(C(F)(F)F)cc2)cc(-n2ccnc2C(C)(C)C)c1 [Example 33, N-tert-Butyl-3-(2-tert-butylimidazol-1-yl)-5-[4-(trifluoromethyl)-phenyl]-benzamide] | 225 °C | 290 nM |
| CC(C)(C)NC(=O)c1cc(-c2ccc(C(F)(F)F)cc2)cc(-n2ccnc2C(C)(C)O)c1 [Example 35, N-tert-Butyl-3-[2-(2-hydroxypropan-2-yl)-imidazol-1-yl]-5-[4-(trifluoromethyl)-phenyl]-benzamide] | 173.5 °C | 210 nM |
| CC(C)(CO)NC(=O)c1cc(-c2ccc(Cl)cc2)cc(-n2ccnc2C2CC2)c1 [Example 42, 3-(4-Chlorophenyl)-5-(2-cyclopropylimidazol-1-yl)-N-(1-hydroxy-2-methylpropan-2-yl)-benzamide] | 99 °C | 170 nM |
| CC(C)(CO)NC(=O)c1cc(-c2ccc(Cl)cc2)cc(-n2ccnc2C(C)(C)C)c1 [Example 43, 3-(2-tert-Butylimidazol-1-yl)-5-(4-chlorophenyl)-N-(1-hydroxy-2-methylpropan-2-yl)-benzamide] | 234 °C | 80 nM |
